The target in this assay is T1, cat T1R1/T1R3 receptor (Felis catus, UniProt A0ABI7Z2I4).
T1 sequence (A0ABI7Z2I4 171-420): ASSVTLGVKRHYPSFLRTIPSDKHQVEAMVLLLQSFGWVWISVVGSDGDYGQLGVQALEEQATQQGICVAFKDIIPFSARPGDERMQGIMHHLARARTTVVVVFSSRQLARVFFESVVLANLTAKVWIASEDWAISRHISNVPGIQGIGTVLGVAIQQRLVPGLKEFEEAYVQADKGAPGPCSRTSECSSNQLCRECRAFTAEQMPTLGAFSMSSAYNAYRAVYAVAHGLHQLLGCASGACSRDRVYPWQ
T1 sequence (Q49KI5 25-865 E206Q/N523D/F654L partner): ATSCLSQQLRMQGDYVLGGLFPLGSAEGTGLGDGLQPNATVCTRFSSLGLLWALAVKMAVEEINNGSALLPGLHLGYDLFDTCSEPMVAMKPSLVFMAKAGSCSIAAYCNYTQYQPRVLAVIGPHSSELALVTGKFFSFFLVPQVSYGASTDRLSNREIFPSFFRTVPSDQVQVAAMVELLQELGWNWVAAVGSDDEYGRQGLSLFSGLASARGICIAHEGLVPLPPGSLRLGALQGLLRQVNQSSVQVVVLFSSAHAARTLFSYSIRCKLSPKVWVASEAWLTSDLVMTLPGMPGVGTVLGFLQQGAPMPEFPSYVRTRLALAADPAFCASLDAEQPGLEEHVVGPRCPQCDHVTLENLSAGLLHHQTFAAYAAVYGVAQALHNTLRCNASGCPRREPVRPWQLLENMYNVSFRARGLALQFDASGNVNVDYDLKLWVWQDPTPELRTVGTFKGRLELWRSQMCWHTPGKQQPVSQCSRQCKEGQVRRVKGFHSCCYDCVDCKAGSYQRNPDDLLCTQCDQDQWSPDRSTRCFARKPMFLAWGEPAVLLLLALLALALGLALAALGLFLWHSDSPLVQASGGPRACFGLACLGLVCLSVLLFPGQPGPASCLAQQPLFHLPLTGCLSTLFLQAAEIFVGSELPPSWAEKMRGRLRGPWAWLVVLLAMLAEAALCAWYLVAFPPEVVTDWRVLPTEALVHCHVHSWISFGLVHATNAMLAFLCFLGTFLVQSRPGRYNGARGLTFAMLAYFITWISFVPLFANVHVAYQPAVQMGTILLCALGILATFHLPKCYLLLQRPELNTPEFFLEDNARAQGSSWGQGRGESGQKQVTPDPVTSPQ
In words: cell-based. The settings on record: for function as activators of T1R1/T1R3 (in words): in the presence of alanine. From the text:
HEK293 cells that stably express T1R3 and inducibly express T1R1 were exposed to nucleotide derivatives alone or in combination with one or more amino acids and/or one or more nucleotides to activate the umami receptor. Activation of the T1R1/T1R3 receptor was detected by a change in intracellular calcium levels using a calcium sensitive fluorescent dye and/or a luminescent reporter system. Cells that express T1R3 but not T1R1 were used as a control. A FLIPR® Tetra or a FlexStation® 3 was used for data capture.

The mark [1] stands for this setting: threshold amount that results in activation of T1R1/T1R3, 20 mM alanine.

Where a name gives a salt, the structure may show the parent alone. Read-outs that look alike come from different tables or passages of the source.

By EC50 is commonly meant the midpoint of the concentration-response curve.

`O=P(O)(O)OC[C@H]1O[C@@H](n2cnc3c(NC4CCCC4)ncnc32)[C@H](O)[C@@H]1O` [N6-Cyclopentyladenosine-5′-O-monophosphate]: the result was active and the Threshold came out at 0.013 mM.

With `Nc1ncnc2c1ncn2C1OC(COP(=O)(O)O)C(OP(=O)(O)O)C1O` (stereo not drawn) [Adenosine 3′,5′-diphosphate sodium salt, adenosine 3′, 5′ diphosphate sodium salt], the outcome was active and the Threshold came to 0.00025 mM.

With `O=P(O)(O)OC[C@H]1O[C@@H](n2cnc3c2ncn2ccnc32)[C@H](O)[C@@H]1O` [1, N6-Ethenoadenosine-5′-O-monophosphate], the Threshold is on record as 0.010 mM.

For the compound `O=P(O)(O)OCC1OC(n2cnc3c(Cl)ncnc32)C(O)C1O` (stereo not drawn) [6-Chloropurineriboside-5′-O-monophosphate], the outcome was active, the “Max resp. (ΔF/F)” value is listed as 1.5325 ΔF/F and the “Max. resp. % of IMP” value is reported as 123.3 % of IMP.

In the case of `CNc1ccccc1C(=O)O[C@H]1C[C@H](n2cnc3c(N)ncnc32)O[C@@H]1COP(=O)(O)O` [2′-Deoxy-3′-O-(N′-methylanthraniloyl)adenosine-5′-O-monophosphate], the outcome was active, the “Max resp. (ΔF/F)” value is on record as 0.3975 ΔF/F, the “Max. resp. % of IMP” value is listed as 32.0 % of IMP and the Threshold is recorded as 0.0025 mM.

`Nc1nc2c(ncn2C2CC(OP(=O)(O)O)C(COP(=O)(O)O)O2)c(=O)[nH]1` (stereo not drawn) [2′-Deoxyguanosine-3′,5′-O-bisphosphate]: the result was active, the “Max resp. (ΔF/F)” value is recorded as 1.8925 ΔF/F, the “Max. resp. % of IMP” value is on record as 152.3 % of IMP and the Threshold came to 0.005 mM. Further, the “function as activators of T1R1/T1R3 (in words)” value (“function as activators” below) is reported as “activators of T1R1/T1R3”.

Take `Nc1ncnc2c1ccn2[C@H]1O[C@@H](COP(=O)(O)O)[C@H](O)[C@@H]1O` (stereo in doubt) [7-Deazaadenosine-5′-O-monophosphate]: the result was active and the Threshold turned out to be 0.188 mM.

For the compound `Nc1nc2c(nc(Br)n2[C@@H]2O[C@H](COP(=O)(O)O)[C@@H](O)[C@H]2O)c(=O)[nH]1` [8-Bromoguanosine-5′-O-monophosphate], the outcome was active, the “Max resp. (ΔF/F)” value was 0.375 ΔF/F, the “Max. resp. % of IMP” value is recorded as 30.2 % of IMP and the Threshold is 1 mM.

Consider `O=c1ccn([C@@H]2O[C@H](COP(=O)(O)O)[C@@H](O)[C@H]2O)c(=O)[nH]1` [UMP, uridine monophosphate, reference compound], for which the EC50 is greater than 30000 µM.

In the case of `O=P(O)(O)OC[C@H]1O[C@@H](n2cnc3cncnc32)[C@H](O)[C@@H]1O` [Purine riboside-5′-O-monophosphate, reference compound], the outcome was active and the Threshold is recorded as 0.005 mM.

For `Nc1ncnc2c1ncn2C1CC(O)C(COP(O)(O)=S)O1` (stereo not drawn) [2′-Deoxyadenosine-5′-O-monophosphorothioate], the result was active and the Threshold was 0.015 mM.

For the compound `O=C(Nc1ncnc2c1ncn2[C@@H]1O[C@H](COP(=O)(O)O)[C@@H](O)[C@H]1O)c1ccccc1`, the result was active, the “Max resp. (ΔF/F)” value is 1.1 ΔF/F and the Threshold is given as 0.3 mM. For the same compound, the EC50 (read-out: EC50- with Ala) was greater than 1000 µM.

Turning to `O=c1ccn(C2OC(COP(=O)(O)N3CCOCC3)C(O)C2O)c(=O)[nH]1` (stereo not drawn), the “Max. resp. % of IMP” value (maximum response in relation to the response with IMP, 20 mM alanine) is 104.8 % of IMP. The “Max resp. (ΔF/F)” value (maximum response of the receptor, 20 mM alanine) is recorded as 1.0150 ΔF/F. Besides, under setting [1], the Threshold is on record as 2.000 mM.

As to `Nc1ncnc2c1ncn2[C@H]1C[C@H](O)[C@@H](COP(=O)(O)O)O1` [2′-Deoxyadenosine 5′-monophosphate], the result was active, the half-maximal effective concentration (EC50) was determined as 140 µM and the Threshold is on record as 0.035 mM.

As for `O=c1[nH]c(=O)c2ncn([C@@H]3O[C@H](COP(=O)(O)O)[C@@H](O)[C@H]3O)c2[nH]1` [xanthosine monophosphate], the outcome was active and the Threshold stood at 0.025 mM.

Take `O=c1[nH]cnc2c1ncn2C1OC(COP(=O)(O)OP(=O)(O)O)C(O)C1O` (stereo not drawn) [Inosine 5′-diphosphate (IDP) sodium salt, inosine 5′-diphosphate (IDP) sodium salt]: the result was active, the “Max resp. (ΔF/F)” value is 0.3 ΔF/F and the “Max. resp. % of IMP” value is listed as 33.3 % of IMP. Also, the Threshold under setting [1] turned out to be 0.1625 mM.

Consider `O=c1ccn([C@H]2O[C@@H](COP(=O)(O)O)[C@H](O)[C@@H]2O)c(=O)[nH]1` (stereo in doubt) [uridine monophosphate], for which the outcome was active, the concentration for a half-maximal effect (EC50) is greater than 30000 µM and the Threshold worked out at 3.000 mM.

In the case of `Nc1ncnc2c1ncn2[C@H]1C[C@H](OP(=O)(O)O)[C@@H](COP(=O)(O)O)O1` [2′-Deoxyadenosine-3′,5′-O-bisphosphate], the outcome was active.

As to `CNc1ccccc1C(=O)OC1C[C@H](n2cnc3c(=O)[nH]c(N)nc32)O[C@@H]1COP(=O)(O)O` (stereo partly drawn) [2′-Deoxy-3′-O-(N′-methylanthraniloyl) guanosine-5′-O-monophosphate], the outcome was active, the “Max resp. (ΔF/F)” value is given as 0.295 ΔF/F, the “Max. resp. % of IMP” value is listed as 23.7 % of IMP and the Threshold is on record as 0.0025 mM. The “function as activators” value is on record as “activators of T1R1/T1R3”.

Consider `O=c1ccn([C@H]2C[C@H](O)[C@@H](COP(O)(O)=S)O2)c(=O)[nH]1` [2′-Deoxyuridine-5′-O-monophosphorothioate (5′-dUMPS)], for which the “Max resp. (ΔF/F)” value is listed as 0.4200 ΔF/F, the “Max. resp. % of IMP” value is 43.4 % of IMP and the Threshold was 5.000 mM.

On to `Nc1ncnc2c1ncn2[C@@H]1O[C@H](COP(=O)(O)O)[C@@H](O)[C@H]1O` [adenosine monophosphate], for which the result was active and the Threshold is on record as 0.003 mM.

For `Nc1ncnc2c1ncn2[C@@H]1O[C@H](COP(=O)(O)O)[C@@H](O)[C@H]1O` [adenosine monophosphate (AMP), adenosine monophosphate, reference compound], the EC50 amounted to 11 µM.

For the compound `CNc1ncnc2c1ncn2[C@@H]1O[C@H](COP(=O)(O)O)[C@@H](O)[C@H]1O` [N6-Methyladenosine 5′-monophosphate], the Threshold is 0.020 mM. For the same compound, the result (+Alanine (20 mM)) was active.

Consider `Nc1nc2c(ncn2[C@@H]2O[C@H](COP(=O)(O)OP(=O)(O)OP(=O)(O)O)[C@@H](O)[C@H]2O)c(=O)[nH]1` [Guanosine 5′-triphosphate], for which the result was active, the EC50 worked out at 700 µM, the “Max resp. (ΔF/F)” value is recorded as 1.8075 ΔF/F and the “Max. resp. % of IMP” value is recorded as 145.5 % of IMP. For the same compound, the Threshold is 0.175 mM.

Turning to `Nc1nc2c(ncn2[C@@H]2O[C@H](COP(=O)(O)O)[C@@H](O)[C@H]2O)c(=S)[nH]1` [6-Thioguanosine-5′-O-monophosphate], the result was active.

Consider `Nc1nc2c(ncn2C2CC(O)C(COP(O)(O)=S)O2)c(=O)[nH]1` (stereo not drawn) [2′-Deoxyguanosine-5′-O-monophosphorothioate], for which the outcome was active, the “Max resp. (ΔF/F)” value was 1.0775 ΔF/F, the “Max. resp. % of IMP” value is 86.7 % of IMP and the Threshold was found to be 0.0025 mM. The “function as activators” value is “activators of T1R1/T1R3”.

For the compound `Nc1nc2c(ncn2[C@@H]2O[C@H](COP(O)(O)=S)[C@@H](O)[C@H]2O)c(=O)[nH]1` [Guanosine-5′-monophosphorothioate], the result was active, the concentration giving a half-maximal response (EC50) was found to be 10 µM, the “Max resp. (ΔF/F)” value is 1.29 ΔF/F and the “Max. resp. % of IMP” value is recorded as 103.8 % of IMP. Further, the Threshold was determined as 0.0025 mM and the “function as activators” value was “activators of T1R1/T1R3”.
